Values of other authors as cited in patent US10722545B2, “Compound and method for treatment of movement disorders” (priority 2018, dated 2020).

What was measured:
[1] = cyclic voltammetry and fenton reaction-based system
mice = conditions: oral administration
[2] = tested on: rat cortical neuron cultures; conditions: for glutamate toxicity: isolated or synthetic cannabinoid; for NMDA, AMPA and kainate receptor mediated neurotoxicity: rat cortical neuron cultures, not affected by CB receptor antagonist
neurons = conditions: neuronal cultures
[3] = tested on: mutant hamster model of dystonia

Row | SMILES | antioxidant activity [1] | inhibition of phenyl-p-benzoquinone-induced writhing (mice) | glutamate toxicity [2] | NMDA, AMPA and kainate receptor mediated neurotoxicity [2] | hydroperoxide toxicity in neurons (neurons) | protective capacity against glutamate toxicity, head to head with other antioxidants ([2]; compared with alpha-tocopherol and ascorbate) | antidystonic effects [3]
1 | CCCCCc1cc(O)c2c(c1)OC(C)(C)[C@@H]1CCC(C)=C[C@@H]21 (relative stereo) [THC, (-)-Δ9-trans-tetrahydrocannabinol] | potent antioxidants | least effective | prevented to some extent | reduced | – | – | –
2 | CCCCCc1cc(O)c2c(c1)OC(C)(C)c1ccc(C)cc1-2 [CBN, cannabinol] | – | least effective | – | – | – | – | –
3 | C=C(C)[C@@H]1CCC(C)=C[C@H]1c1c(O)cc(CCCCC)cc1O [CBD, cannabidiol] | potent antioxidants | most effective | prevented to some extent | reduced | reduce hydroperoxide toxicity | superior to both alpha-tocopherol and ascorbate | –
4 | Cc1c(C(=O)c2cccc3ccccc23)c2cccc3c2n1[C@H](CN1CCOCC1)CO3 [WIN55,212-2] | – | – | – | – | – | – | produces antidystonic effects
